Source: patent US7968139B2, “Packaged beverages” (Kao Corporation, priority 2000, dated 2011)

How the values were obtained:
[1] = test system: PPAR-dependent gene transcription in human hepatic cell line HepG2; assay: Test on PPAR-dependent gene transcription activation (PPAR-Luc reporter), HepG2; assay type: cell-based; details: HepG2, test concentration 10 μM, 24 hours
Procedure: (§1) The small intestine epithelial cell line IEC-6 and human hepatic cell line HepG2 were inoculated on a 12 well plate and cultured in DMEM (5% FCS) for 24 hours. A DNA chain containing PPAR responsive element (underlined portion) ([…]), a SV40 promoter gene, a PPAR reporter plasmid (PPAR-Luc) containing firefly luciferase gene, and a control plasmid having thymidine kinase promoter gene linked on the upstream of renilla luciferase gene were introduced simultaneously by using a transfection reagent (“Superfect transfection reagent”, product of Promega Corporation) each in an amount of 0.5 μg/well. The culture broth was then replaced with a DMEM (—FCS) medium containing a test substance, followed by incubation for further 24 hours. After washing with PBS, the cells were lysed using dual luciferase assay system (product of Promega Corporation). To the resulting lysate, a substrate solution containing luciferin was added and firefly and renilla luciferase activities were measured by a luminometer. In this test system, a PPAR-dependent gene transcriptional activator was searched for by measuring the transcriptional activity (luciferase activity of PPAR-dependent gene. It is to be noted that the PPAR-dependent gene transcriptional activity (luciferase activity) was defined as described below. PPAR-dependent gene transcriptional activity (luciferase activity)=(firefly luciferase activity by PPAR-Luc)/(renilla luciferase activity by TK-Luc)
(§2) In Table 8, PPAR-dependent gene transcription activating capacity of each test substance in IEC-6 and HepG2 cell lines is shown. In this table, PPAR-dependent transcriptional activity by the control is set at 100 and activity relative to it is indicated. As a positive control, fenofibrate was employed.

[2] = test system: PPAR-dependent gene transcription in small intestine epithelial cell line IEC-6; assay: Test on PPAR-dependent gene transcription activation (PPAR-Luc reporter), IEC-6; assay type: cell-based; details: IEC-6, test concentration 10 μM, 24 hours
Procedure: as §1, §2

Compound	PPAR-dependent transcriptional activity (luciferase activity) relative to control set at 100 [1]	PPAR-dependent transcriptional activity (luciferase activity) relative to control set at 100 [2]
O=C(O[C@@H]1Cc2c(O)cc(O)cc2O[C@@H]1c1ccc(O)c(O)c1)c1cc(O)c(O)c(O)c1 [Epicatechin gallate]	166	178
Oc1cc(O)c2c(c1)O[C@H](c1ccc(O)c(O)c1)[C@H](O)C2 [Epicatechin]	150	158
O=C(O[C@@H]1Cc2c(O)cc(O)cc2O[C@@H]1c1cc(O)c(O)c(O)c1)c1cc(O)c(O)c(O)c1 [Epigallocatechin gallate]	172	184
Catechin	149	152
